Laboratory results taken from patent US20050282818A1, “Ubiquitin ligase inhibitors” (Rigel Pharmaceuticals, Inc., priority 2004, published 2005).

Target: T1, TRAF6/Uev1A/Ubc13 (Homo sapiens, UniProt Q9Y4K3)
T1 sequence (Q9Y4K3 1-522): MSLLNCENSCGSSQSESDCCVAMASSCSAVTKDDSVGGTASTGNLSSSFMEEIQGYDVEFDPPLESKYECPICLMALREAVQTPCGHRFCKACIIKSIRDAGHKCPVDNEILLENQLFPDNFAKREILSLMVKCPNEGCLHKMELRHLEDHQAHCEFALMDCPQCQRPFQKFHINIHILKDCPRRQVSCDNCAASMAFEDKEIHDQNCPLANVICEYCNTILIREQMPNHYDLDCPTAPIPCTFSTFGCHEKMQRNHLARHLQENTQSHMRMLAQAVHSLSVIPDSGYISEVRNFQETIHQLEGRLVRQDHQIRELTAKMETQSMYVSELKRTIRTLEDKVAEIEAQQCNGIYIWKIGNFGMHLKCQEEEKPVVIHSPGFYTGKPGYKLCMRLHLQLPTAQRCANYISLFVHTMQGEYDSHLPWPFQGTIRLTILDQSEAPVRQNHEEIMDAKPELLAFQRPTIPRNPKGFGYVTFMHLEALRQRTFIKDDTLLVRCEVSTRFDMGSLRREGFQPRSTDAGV
Assay: TRAF6/Uev1A/Ubc13 plate-based ubiquitin ligase assay
Format: biochemical
Procedure: For the assays described below, the TRAF6/Uev1A/UBC13 assay is the biochemical plate-based assay of TRAF6 ligase activity using Ubc13 as the E2 enzyme. The gel-based assay is the biochemical solution-based TRAF6 ligase assay (by SDS-PAGE and Western blot) to confirm the plate-based ELISA assay. The APC assay is an assay which is another E3 ligase (APC2/APC11) biochemical assay.
A 96-well Ni-plate was blocked with 100 μl of 1% casein in PBS for 1 hour at room temperature. The plates were then washed three times with 200 μl of 1×PBS and 80 μl of a reaction buffer was added per well which contained 50 ng of Flag-ubiquitin, 50 ng of His-ubiquitin, 62.5 mM Tris pH 7.5, 6.25 mM MgCl2, 1.0 mM DTT, and 2 μM ATP. To each well was added 10 μl of a solution of the compound in DMSO. The reaction was started by adding 10 μl of a solution consisting of 10 ng human E1, 25 ng each of Uev1a and Ubc13, and 100 ng TRAF6 in the reaction buffer. The plates were shaken for 10 minutes and incubate at room temperature for 1 hour. After the incubation, the plates were washed three times with 200 μl 1×PBS in 0.05% Tween and 100 μl of an antibody mix consisting of anti-Flag (1:30,000 dilution; Sigma F-3165) and anti-Mouse IgG-HRP (1/150,000 dilution; Jackson Immunoresearch #115-035-146) in 1×PBS with 0.25% BSA. The plates were then incubated for another 1 hour at room temperature, and after incubation the plate was washed three times with 200 μl 1×PBS with 0.05% Tween. The amount of ubiquitin was measured by adding 100 μl of Lumino substrate (1:5 dilution) and reading the luminescence with a fluorimeter.
Table 2 below illustrates the inhibitory activity of the compounds of the invention determined by the TRAF6/Uev1A/Ubc13 assay as well as in the ICAM, APC and the ROC1/CUL1 Ubiquitin Ligase Assay (SCF Assay). The IC50 values were determined using a various concentrations of the compounds.

SMILES	IC50 [µM]
FC(F)(F)c1cccc(-c2cccc3nonc23)c1 [compound 305, 4-[3-(Trifluoromethyl)phenyl]-2,1,3-benzoxadiazole]	≥ 20
O=S(=O)(c1ccc(Sc2cccc3ccccc23)c2nonc12)N1CCN(c2ccccc2)CC1 [compound 253, 4-(1-naphthylthio)-7-[(4-phenylpiperazin-1-yl)sulfonyl]-2,1,3-benzoxadiazole]	1 to 20
CCN(CC)c1cc(N2CCC3(CC2)OC(=O)c2ccccc23)c2nonc2c1[N+](=O)[O-] [compound 303, 1′-[6-(diethylamino)-7-nitro-2,1,3-benzoxadiazol-4-yl]-3H-spiro[2-benzofuran-1,4′-piperidin]-3-one]	≥ 20
CCN(CC)c1cc(N2CCC(O)(c3ccccc3)CC2)c2nonc2c1[N+](=O)[O-] [compound 299, 1-[6-(diethylamino)-7-nitro-2,1,3-benzoxadiazol-4-yl]-4-phenylpiperidin-4-ol]	≥ 20
CC1(C)CCN(S(=O)(=O)c2ccc(Cl)c3nonc23)CC1 [compound 247, 4-chloro-7-[(4,4-dimethylpiperidin-1-yl)sulfonyl]-2,1,3-benzoxadiazole]	≥ 20
O=[N+]([O-])c1ccc(N2CCN(c3ccc([N+](=O)[O-])c4nonc34)CC2)cc1 [compound 147, 4-nitro-7-[4-(4-nitrophenyl)piperazin-1-yl]-2,1,3-benzoxadiazole]	1 to 20
O=C1OC2(CCN(c3cc(N4CCCCC4)c([N+](=O)[O-])c4nonc34)CC2)c2ccccc21 [compound 304, 1′-(7-nitro-6-piperidin-1-yl-2,1,3-benzoxadiazol-4-yl)-3H-spiro[2-benzofuran-1,4′-piperidin]-3-one]	≥ 20
O=C1OC2(CCN(c3ccc([N+](=O)[O-])c4nonc34)CC2)c2ccccc21 [compound 302, 1′-(7-nitro-2,1,3-benzoxadiazol-4-yl)-3H-spiro[2-benzofuran-1,4′-piperidin]-3-one]	1 to 20
CCN(CC)c1cc(N2CCN(c3ncc(C(F)(F)F)cc3Cl)CC2)c2nonc2c1[N+](=O)[O-] [compound 293, 7-{4-[3-chloro-5-(trifluoromethyl)pyridin-2-yl]piperazin-1-yl}-N,N-diethyl-4-nitro-2,1,3-benzoxadiazol-5-amine]	≥ 20
CCN(CC)c1cc(N2CCN(c3ccc(Cl)c(C(F)(F)F)c3)CC2)c2nonc2c1[N+](=O)[O-] [compound 292, 7-{4-[4-chloro-3-(trifluoromethyl)phenyl]piperazin-1-yl}-N,N-diethyl-4-nitro-2,1,3-benzoxadiazol-5-amine]	≥ 20
CCN(CC)c1cc(N2CCC3(CC2)OCc2ccccc23)c2nonc2c1[N+](=O)[O-] [compound 298, N,N-diethyl-4-nitro-7-(1′H,3H-spiro[2-benzofuran-1,4′-piperidin]-1′-yl)-2,1,3-benzoxadiazol-5-amine]	≥ 20
O=[N+]([O-])c1c(N2CCCCC2)cc(N2CCN(c3ccc(Cl)c(C(F)(F)F)c3)CC2)c2nonc12 [compound 295, 7-{4-[4-chloro-3-(trifluoromethyl)phenyl]piperazin-1-yl}-4-nitro-5-piperidin-1-yl-2,1,3-benzoxadiazole]	≥ 20
O=S(=O)(c1cccc2nsnc12)N1CCC(Oc2ccccc2C(F)(F)F)CC1 [compound 240, 4-({4-[2-(trifluoromethyl)phenoxy]piperidin-1-yl}sulfonyl)-2,1,3-benzothiadiazole]	≥ 20
O=S(=O)(c1ccc(Sc2ccc3ccccc3n2)c2nonc12)N1CCN(c2ccccc2)CC1 [compound 252, 2-({7-[(4-phenylpiperazin-1-yl)sulfonyl]-2,1,3-benzoxadiazol-4-yl}thio)quinoline]	≥ 20
O=[N+]([O-])c1c(N2CCCCC2)cc(N2CCC3(CC2)OCc2ccccc23)c2nonc12 [compound 300, 1′-(7-nitro-6-piperidin-1-yl-2,1,3-benzoxadiazol-4-yl)-3H-spiro[2-benzofuran-1,4′-piperidine]]	≥ 20
CCN(CC)c1cc(N2CCN(c3ncccc3C#N)CC2)c2nonc2c1[N+](=O)[O-] [compound 294, 2-{4-[6-(diethylamino)-7-nitro-2,1,3-benzoxadiazol-4-yl]piperazin-1-yl}nicotinonitrile]	≥ 20
O=[N+]([O-])c1c(N2CCCCC2)cc(N2CCN(c3ncc(C(F)(F)F)cc3Cl)CC2)c2nonc12 [compound 296, 7-{4-[3-chloro-5-(trifluoromethyl)pyridin-2-yl]piperazin-1-yl}-4-nitro-5-piperidin-1-yl-2,1,3-benoxadiazole]	1 to 20
O=[N+]([O-])c1c(N2CCCCC2)cc(N2CCC(O)(c3ccccc3)CC2)c2nonc12 [compound 301, 1-(7-nitro-6-piperidin-1-yl-2,1,3-benzoxadiazol-4-yl)-4-phenylpiperidin-4-ol]	≥ 20
O=[N+]([O-])c1ccc(N2CCC(S(=O)(=O)c3ccccn3)CC2)c2nonc12 [compound 289, 4-nitro-7-[4-(pyridin-2-ylsulfonyl)piperidin-1-yl]-2,1,3-benzoxadiazole]	≥ 20

Further lines, results first:

IC50 [µM]	SMILES
≥ 20	CCOc1ccc2nc(NS(=O)(=O)c3ccc(Cl)c4nonc34)sc2c1 [compound 198, 7-chloro-N-(6-ethoxy-1,3-benzothiazol-2-yl)-2,1,3-benzoxadiazole-4-sulfonamide]
≥ 20	O=[N+]([O-])c1ccc(S(=O)(=O)c2cccc3cccnc23)c2nonc12 [compound 290, 8-[(7-nitro-2,1,3-benzoxadiazol-4-yl)sulfonyl]quinoline]
1 to 20	Cc1cc(F)ccc1Nc1ccc(S(=O)(=O)Nc2ccc(F)cc2C)c2nonc12 [compound 275, N-(4-fluoro-2-methylphenyl)-7-[(4-fluoro-2-methylphenyl)amino]-2,1,3-benzoxadiazole-4-sulfonamide]
≥ 20	O=S(=O)(Nc1cccc(F)c1)c1ccc(Nc2cccc(F)c2)c2nonc12 [compound 273, N-(3-fluorophenyl)-7-[(3-fluorophenyl)amino]-2,1,3-benzoxadiazole-4-sulfonamide]
≥ 20	COC(=O)c1ccc(NS(=O)(=O)c2ccc(Sc3ccc4ccccc4n3)c3nonc23)cc1 [compound 248, methyl 4-({[7-(quinolin-2-ylthio)-2,1,3-benzoxadiazol-4-yl]sulfonyl}amino)benzoate]
≥ 20	O=S(=O)(c1ccc(Sc2ccncc2)c2nonc12)N1CCN(c2ccccc2)CC1 [compound 251, 4-[(4-phenylpiperazin-1-yl)sulfonyl]-7-(pyridin-4-ylthio)-2,1,3-benzoxadiazole]
≥ 20	COC(=O)c1ccc(NS(=O)(=O)c2ccc(Oc3cccc4cccnc34)c3nonc23)cc1 [compound 277, methyl 4-({[7-(quinolin-8-yloxy)-2,1,3-benzoxadiazol-4-yl]sulfonyl}amino)benzoate]
≥ 20	O=S(=O)(Nc1cccc2nsnc12)c1ccc(Oc2ccc(C(F)(F)F)cc2Cl)nc1 [compound 117, N-2,1,3-benzothiadiazol-4-yl-6-[2-chloro-4-(trifluoromethyl)phenoxy]pyridine-3-sulfonamide]
≥ 20	COC(=O)c1ccc(NS(=O)(=O)c2ccc(N3CCSCC3)c3nonc23)cc1 [compound 250, methyl 4-{[(7-thiomorpholin-4-yl-2,1,3-benzoxadiazol-4-yl)sulfonyl]amino}benzoate]
1 to 20	O=S(=O)(c1ccc(Sc2ccc(O)cc2)c2nonc12)N1CCN(c2ccccc2)CC1 [compound 249, 4-({7-[(4-phenylpiperazin-1-yl)sulfonyl]-2,1,3-benzoxadiazol-4-yl}thio)phenol]
1 to 20	Cc1cc(F)ccc1NS(=O)(=O)c1ccc(F)c2nonc12 [compound 276, 7-fluoro-N-(4-fluoro-2-methylphenyl)-2,1,3-benzoxadiazole-4-sulfonamide]
≥ 20	O=S(=O)(Nc1cccc(F)c1)c1ccc(F)c2nonc12 [compound 272, 7-fluoro-N-(3-fluorophenyl)-2,1,3-benzoxadiazole-4-sulfonamide]
